Like-named read-outs stand apart in the source and are kept apart here.
Experiments:
human 5-HT3AB receptors [1] = molecular target: T1, human 5-HT3AB receptors (Homo sapiens, UniProt O95264+P46098); test: Two-electrode voltage clamp of 5-HT-induced currents in Xenopus oocytes; format: cell-based; conditions: for IC50 at heteromers (5-HT3AB) relative to 5-HT3A: 5-HT3AB versus 5-HT3A; for IC50: oocytes; for Hill slope: concentration-inhibition curve, 28 μM 5-HT
T1 construct: expressed in transfected cells; host or cells: Xenopus laevis oocytes (cRNA from pGEMHE)
T1 sequence (P46098 24-478): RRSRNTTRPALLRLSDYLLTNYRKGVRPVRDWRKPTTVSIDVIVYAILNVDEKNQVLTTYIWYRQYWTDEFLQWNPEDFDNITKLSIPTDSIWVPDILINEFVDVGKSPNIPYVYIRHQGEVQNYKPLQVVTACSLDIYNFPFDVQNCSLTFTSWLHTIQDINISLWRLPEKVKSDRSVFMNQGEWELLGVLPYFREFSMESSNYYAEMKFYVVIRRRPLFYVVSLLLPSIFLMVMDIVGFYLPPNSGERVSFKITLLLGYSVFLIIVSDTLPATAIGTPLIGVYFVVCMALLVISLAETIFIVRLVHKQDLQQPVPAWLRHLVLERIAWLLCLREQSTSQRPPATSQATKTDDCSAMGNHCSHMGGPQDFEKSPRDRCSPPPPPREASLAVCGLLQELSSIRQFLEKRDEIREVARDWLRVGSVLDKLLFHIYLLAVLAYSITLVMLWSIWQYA
T1 sequence (O95264 22-441): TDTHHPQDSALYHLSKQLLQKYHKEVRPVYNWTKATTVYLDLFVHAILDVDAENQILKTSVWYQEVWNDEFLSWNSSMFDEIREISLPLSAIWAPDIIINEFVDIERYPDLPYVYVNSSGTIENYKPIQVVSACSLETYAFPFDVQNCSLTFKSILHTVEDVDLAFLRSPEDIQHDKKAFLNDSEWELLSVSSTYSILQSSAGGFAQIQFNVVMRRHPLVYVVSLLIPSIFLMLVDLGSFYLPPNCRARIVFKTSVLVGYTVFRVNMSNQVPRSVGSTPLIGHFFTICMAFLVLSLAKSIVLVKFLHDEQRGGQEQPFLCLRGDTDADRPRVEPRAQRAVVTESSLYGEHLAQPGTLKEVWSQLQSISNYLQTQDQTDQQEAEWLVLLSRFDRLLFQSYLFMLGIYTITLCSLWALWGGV
Procedure: Stage V and VI oocytes were injected with 50 nl of ∼300 ng μl^−1 cRNA, and currents were recorded 1–4 days post-injection. A ratio of 1:3 (A:B) was used for the expression of heteromeric 5-HT3 receptors.
Xenopus laevis oocyte positive females were purchased from NASCO (Fort Atkinson, Wisconsin, USA) and maintained according to standard methods.
Currents were filtered at a frequency of 1 kHz. Micro-electrodes were fabricated from borosilicate glass (GC120TF-10, Harvard Apparatus, Edenbridge, Kent, UK) using a two stage horizontal pull (P-87, Sutter Instrument Company, California, USA) and filled with 3 M KCl. […] Oocytes were perfused with saline at a rate of 15 ml min^−1. Drug application was via a simple gravity fed system calibrated to run at the same rate. Extracellular saline contained (mM), 96 NaCl, 2 KCl, 1 MgCl2 and 5 mM HEPES; adjusted to pH 7.4 with NaOH.
Analysis and curve fitting was performed using Prism V3.02 (GraphPad Software, San Diego, California, USA, www.graphpad.com). Concentration-response data for each oocyte was normalised to the maximum current for that oocyte. For inhibition curves, antagonists were routinely co-applied in the presence of agonist. For PXN, oocytes were also pre-treated with the compound for 20 s. A 2 min wash was used between drug applications. The mean and S.E.M. for a series of oocytes was plotted against agonist or antagonist concentration and iteratively fitted (GraphPad Prism v3.02) to the following Hill equation:(1) IA=Imin+Imax−Imin/1+10^nH(logA50−logA) where A is the concentration of ligand present; IA is the current in the presence of ligand concentration A; Imin is the current when A = 0; Imax is the current when A = ∞ , A50 is the concentration of A which evokes a current equal to (Imax + Imin)/2; and nH is the Hill coefficient. Results are presented as mean ± S.E.M.. Statistical analysis was performed using ANOVA in conjunction with a Dunnett’s post-hoc test.

human 5-HT3AB receptors [2] = molecular target: T1, human 5-HT3AB receptors; format: binding
Procedure: (§1) Human embryonic kidney (HEK) 293 cells were maintained on 90 mm tissue culture plates at 37 °C and 7% CO2 in a humidified atmosphere. They were cultured in DMEM:F12 with GlutaMAX™ I media (Dulbecco’s Modified Eagle’s Medium /Nutrient Mix F12 (1:1), Invitrogen, Paisley, UK) containing 10% foetal calf serum. For radioligand binding studies, cells in 90 mm dishes were transfected using polyethyleneimine (PEI): 30 μl PEI (1 mg /ml), 5 μl cDNA and 1 ml DMEM were incubated for 10 min at room temperature, added drop wise to a 80–90% confluent plate, and incubated for 3–4 days before use.
(§2) Competition binding (8 point) was performed on at least three separate plates of transfected cells. […] Reactions were incubated for at least 1 h at 4 °C and terminated by vacuum filtration using a Brandel cell harvester onto GF/B filters pre-soaked in 0.3% polyethyleneimine. Radioactivity was determined by scintillation counting using a Beckman BCLS6500 (Fullerton, California, USA). Data were analysed by iterative curve fitting (GraphPad Prism v3.02) according to the equation:(5) BL=Bmin+Bmax−Bmin/1+10^nH(logL50−logL) where L is the concentration of ligand present; BL is the binding in the presence of ligand concentration L; Bmin is the binding when L = 0; Bmax is the binding when L = ∞, L50 is the concentration of L which gives a binding equal to (Bmax + Bmin)/2; and nH is the Hill coefficient. Results are presented as mean ± S.E.M.. Statistical analysis was performed using ANOVA in conjunction with a Dunnett’s post-hoc test.

human 5-HT3A receptors = molecular target: T2, human 5-HT3A receptors (Homo sapiens, UniProt P46098); format: binding
T2 construct: expressed in transfected cells; host or cells: Xenopus laevis oocytes (cRNA from pGEMHE)
T2 sequence (P46098 24-478): T1 sequence (P46098 24-478)
Procedure: as §1, §2

[3] = IC50, inhibition of 5-HT EC50 response (28 μM 5-HT)
[4] = pIC50, inhibition of 5-HT EC50 response (28 μM 5-HT)

| Compound | IC50 at heteromers (5-HT3AB) relative to 5-HT3A (human 5-HT3AB receptors [1]) [fold] | IC50 (human 5-HT3AB receptors [1]; [3]) [µM] | Hill slope (human 5-HT3AB receptors [1]) | IC50 (human 5-HT3AB receptors [1]; [4]) [µM] | Effect on binding of [3H]granisetron (1 nM) (human 5-HT3AB receptors [2]) | Effect on binding of [3H]granisetron (1 nM) (human 5-HT3A receptors) | Effect on binding of [3H]granisetron (1 nM) (human 5-HT3AB receptors [2]; compound 5 mM) | Effect on binding of [3H]granisetron (1 nM) (human 5-HT3A receptors; compound 5 mM) | Effect on binding of [3H]granisetron (1 nM) (human 5-HT3AB receptors [2]; compound 2.5 mM) | Effect on binding of [3H]granisetron (1 nM) (human 5-HT3A receptors; compound 2.5 mM) |
| --- | --- | --- | --- | --- | --- | --- | --- | --- | --- | --- |
| CC(C)(C)[C@]1(O)CC2OC(=O)CC23C(=O)OC2OC(=O)[C@H](O)C231 (stereo partly shown) [BB, bilobalide] | ~6 | 3200 | 0.75 ± 0.13 | 3160 | not affected | not affected |  |  |  |  |
| C=C(C)[C@@H]1[C@H]2OC(=O)[C@@H]1[C@]1(O)C[C@H]3O[C@]34C(=O)O[C@H]2[C@]14C [PXN, picrotoxinin] | ~6 | 62 | 0.68 ± 0.10 | 63.1 |  |  | not affected | not affected |  |  |
| ginkgolide B [GB] | ~6 |  | 0.52 ± 0.14 |  |  |  |  |  | not affected | not affected |

Reference: publication PMC3070799 (Neuropharmacology, 2011)
